Structures can show the parent of a compound that is named as a salt. Where two headings read alike, the source gives them in different places.
Tests used:
acetylcholinesterase = acetylcholinesterase (Homo sapiens, UniProt P22303); assay: Acetylcholinesterase-inhibiting capacity, colorimetric method of Ellman et al.; format: biochemical
[1] = administered intravenously in combination with lecithin, cited from earlier work
[2] = Table 8, with respect to tacrine under the same conditions
[3] = Table 8, with respect to tacrine under the same conditions, hydrochloride

Chain of acetylcholinesterase (P22303 32-614): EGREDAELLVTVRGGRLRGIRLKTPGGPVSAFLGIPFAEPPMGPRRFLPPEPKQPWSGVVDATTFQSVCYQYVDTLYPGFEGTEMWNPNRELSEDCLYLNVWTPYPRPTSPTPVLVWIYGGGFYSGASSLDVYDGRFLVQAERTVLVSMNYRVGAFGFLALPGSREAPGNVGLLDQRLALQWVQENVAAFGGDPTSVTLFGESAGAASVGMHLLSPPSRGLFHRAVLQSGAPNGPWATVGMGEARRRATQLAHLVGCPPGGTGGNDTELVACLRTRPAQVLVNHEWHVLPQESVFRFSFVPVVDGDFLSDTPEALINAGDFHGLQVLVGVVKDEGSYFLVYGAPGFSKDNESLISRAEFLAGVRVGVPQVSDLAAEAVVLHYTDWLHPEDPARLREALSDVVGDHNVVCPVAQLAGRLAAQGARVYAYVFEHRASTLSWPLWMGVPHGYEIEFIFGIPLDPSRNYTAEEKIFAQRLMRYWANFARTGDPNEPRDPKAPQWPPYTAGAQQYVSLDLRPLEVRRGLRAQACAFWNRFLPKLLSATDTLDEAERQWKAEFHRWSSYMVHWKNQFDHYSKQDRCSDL

Structure (SMILES)	IC50 tacrine/IC50 compound (ratio of the IC50 of tacrine to the IC50 of each compound) (acetylcholinesterase)	IC50 tacrine/IC50 compound (ratio of the IC50 of tacrine to the IC50 of each compound) (acetylcholinesterase; [2])	also measured
CC1=CC2Cc3nc4ccccc4c(N)c3C(C1)C2 (racemic) [Ibw, 12-Amino-6,7,10,11-tetrahydro-9-methyl-7,11-methanocycloocta[b]quinoline]	2.00	–	–
CCC1=CC2Cc3nc4ccccc4c(N)c3C(C1)C2 (racemic) [Icw, 12-Amino-9-ethyl-6,7,10,11-tetrahydro-7,11-methanocycloocta[b]quinoline]	–	3.38	–
CCC1=CC2Cc3nc4ccccc4c(N)c3C(C1)C2 (single isomer, unassigned; (+)) [(+) --Icw, (+)-12-Amino-6,7,10,11-tetrahydro-9-ethyl-7,11-methanocycloocteno[b]quinoline hydrochloride]	–	–	IC50 tacrine/IC50 compound (ratio of the IC50 of tacrine to the IC50 of each compound) (acetylcholinesterase; [3]): 0.15
CCC1=CC2Cc3nc4ccccc4c(N)c3C(C1)C2 (single isomer, unassigned; (-)) [(-) --Icw, (-)-12-Amino-6,7,10,11-tetrahydro-9-ethyl-7,11-methanocycloocteno[b]quinoline hydrochloride]	–	–	IC50 tacrine/IC50 compound (ratio of the IC50 of tacrine to the IC50 of each compound) (acetylcholinesterase; [3]): 4.80; inhibitory activity against the enzyme acetylcholinesterase (in words) (acetylcholinesterase; qualitative comparison with tacrine or with enantiomer): much more active than their enantiomers
CC1=CC2Cc3nc4ccccc4c(N)c3C(C1)C2 (stereo not drawn) [(+) --Ibw]	0.40	–	–
CC1=CC2Cc3nc4ccccc4c(N)c3C(C1)C2 (stereo not drawn) [(-) --Ibw]	2.80	–	inhibitory activity against the enzyme acetylcholinesterase (in words) (acetylcholinesterase): much more active than their enantiomers
CC1=CC2Cc3nc4cccc(F)c4c(N)c3C(C1)C2 (stereo not shown) [Ibx, 12-Amino-1-fluoro-6,7,10,11-tetrahydro-9-methyl-7,11-methanocycloocta[b]quinoline]	–	4.14	–
CC1=CC2Cc3nc4cc(F)ccc4c(N)c3C(C1)C2 (stereo not shown) [Iby, 12-Amino-3-fluoro-6,7,10,11-tetrahydro-9-methyl-7,11-methanocycloocta[b]quinoline]	–	15.28	–
Nc1c2c(nc3ccccc13)CC1C=C(c3ccccc3)CC2C1 (stereo not shown) [Ifw, 12-Amino-9-phenyl-6,7,10,11-tetrahydro-7,11-methanocycloocta[b]quinoline]	–	1.03	–
Nc1c2c(nc3ccccc13)CCCC2 [tacrine, 9-amino-1,2,3,4-tetrahydroacridine]	–	–	usefulness in the treatment of Alzheimer's disease (in words) [1]: proves useful in the treatment of Alzheimer's disease; toxicity (in words) ([1]; drawback of tacrine): high toxicity

Reference: patent US5965569A, “Polycyclic aminopyridine compounds which are acetylcholinesterase inhibitors, process for preparing them and their use” (priority 1995, dated 1999)
